Here are results for five molecules from patent EP0966963A1, “Use of indigoid bisindole derivatives as CDK1 inhibitors” (Eisenbrand, Gerhard, Prof. Dr., priority 1998, dated 1999).

In experiment [1] the target is CDK4 (Homo sapiens, UniProt P11802). The note with it: known chemical inhibitors, Meijer 1996; cited from earlier work.
For experiment [2], the system named is PKA. The note with it: known chemical inhibitors, Meijer 1996; cited from earlier work.
Experiment [3] has as its target Ca^2+- dependent protein kinase. Nature of the experiment: PKC inhibition (specificity panel). It counts as biochemical.
The target in experiment [4] is cAMP-dependent protein kinase. Nature of the experiment: PKA inhibition (specificity panel). The class given is biochemical.
The target of experiment [5] is p34^cdc2/cyclin B. Nature of the experiment: p34cdc2/cyclin B kinase assay (histone H1 phosphorylation, [32P]ATP). It counts as biochemical, starfish (Marthasterias glacialis). The note with it: 1 mg histone H1/ml, 15 µM ATP, 10 min at 30°C. As to the method: J. Biochem., 243, (1997), 527-536). […] After 10 min. incubation at 30°C, 25 μl aliquots of supernatant were spotted onto 2.5 x 3 cm pieces of Whatman P81 phosphocellulose paper, and after 20 sec., the filters were washed five times (for at least 5 min. each time) in a solution of 10 ml phosphoric acid/liter of water. The wet filters were transferred into 6 ml plastic scintillation vials, 5 ml ACS (Amersham) scintillation fluid was added and the radioactivity measured in a Packard scintillation counter.

Experiment [6] relates to cdc25. Description: cdc25 inhibition (specificity panel). The class given is biochemical.

The IC50 is the point on the concentration scale where inhibition reaches its midpoint.

Chain of CDK4 (P11802 whole entry, species assumed): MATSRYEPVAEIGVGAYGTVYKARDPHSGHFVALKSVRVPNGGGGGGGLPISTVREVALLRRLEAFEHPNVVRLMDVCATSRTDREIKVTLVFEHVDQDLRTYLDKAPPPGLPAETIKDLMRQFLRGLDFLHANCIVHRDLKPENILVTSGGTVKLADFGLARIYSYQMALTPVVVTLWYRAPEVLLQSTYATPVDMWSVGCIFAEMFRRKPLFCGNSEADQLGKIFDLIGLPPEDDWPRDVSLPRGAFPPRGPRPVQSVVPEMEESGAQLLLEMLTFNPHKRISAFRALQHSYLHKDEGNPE
Chain of CDK4 (P24385 whole entry partner, species assumed): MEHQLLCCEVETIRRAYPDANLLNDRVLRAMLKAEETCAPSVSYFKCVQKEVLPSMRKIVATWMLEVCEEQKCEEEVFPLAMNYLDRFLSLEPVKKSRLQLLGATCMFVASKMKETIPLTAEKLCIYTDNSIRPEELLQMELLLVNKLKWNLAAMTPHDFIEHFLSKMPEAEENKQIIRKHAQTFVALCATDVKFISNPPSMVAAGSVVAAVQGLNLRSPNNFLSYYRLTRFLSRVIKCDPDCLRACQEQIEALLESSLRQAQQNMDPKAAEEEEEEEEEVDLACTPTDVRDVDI

Consider `COC(=O)[C@@]1(Cc2ccc(O)c(CC=C(C)C)c2)OC(=O)C(O)=C1c1ccc(O)cc1` [Butyrolactone-l], for which the “IC50 CDK4” value in experiment [1] was “no effect”. Also, in experiment [2], the IC50 is 260 µM.

Regarding `O=C1Nc2ccccc2C1=C1Nc2ccccc2C1=O` [Example 1, Indirubine], the “IC50 PKC” value in experiment [3] was “no Effect”. Also, in experiment [4], the “IC50 PKA” value is “no Effect”. Moreover, the IC50 was 2 µM in experiment [5] and 150 µM in experiment [6].

On to `O=C1Nc2ccc(I)cc2C1=C1Nc2ccccc2C1=O` [Example 2, 5-Iodoindirubine], for which the “IC50 PKC” value in experiment [3] is on record as “no Effect”. In addition, in experiment [4], the “IC50 PKA” value is listed as “no Effect”.

As to `O=C1Nc2ccccc2C1=C1Nc2ccccc2C1=NO` [Example 10, Indirubine-3'-oxime], it took 0.18 µM to reach half-maximal inhibition in experiment [5] (IC50).

Consider `CN1CC[C@H](c2c(O)cc(O)c3c(=O)cc(-c4ccccc4Cl)oc23)[C@H](O)C1` [Flavopiridol], for which the IC50 in experiment [2] is 145 µM.
